Results as given in ChEMBL document CHEMBL4825755 (J Med Chem, 2021).

Tests used:
[1] = target: PI3-kinase p110-delta/p85-alpha (Homo sapiens, UniProt O00329); experiment: Inhibition of recombinant human N-terminal His6-tagged full length P110delta/full length untagged human p85alpha expressed in baculovirus infected Sf21 insect cells using PIP2 as substrate preincubated for 15 mins followed by substrate addition and measured after 60 mins by HTRF assay
[2] = target: PI3-kinase p110-alpha/p85-alpha (Homo sapiens, UniProt P42336); experiment: Inhibition of recombinant human N-terminal His6-tagged full length P110alpha/full length untagged human p85alpha expressed in baculovirus infected Sf21 insect cells using PIP2 as substrate preincubated for 15 mins followed by substrate addition and measured after 60 mins by HTRF assay
Sequence of PI3-kinase p110-alpha/p85-alpha (P27986 whole entry): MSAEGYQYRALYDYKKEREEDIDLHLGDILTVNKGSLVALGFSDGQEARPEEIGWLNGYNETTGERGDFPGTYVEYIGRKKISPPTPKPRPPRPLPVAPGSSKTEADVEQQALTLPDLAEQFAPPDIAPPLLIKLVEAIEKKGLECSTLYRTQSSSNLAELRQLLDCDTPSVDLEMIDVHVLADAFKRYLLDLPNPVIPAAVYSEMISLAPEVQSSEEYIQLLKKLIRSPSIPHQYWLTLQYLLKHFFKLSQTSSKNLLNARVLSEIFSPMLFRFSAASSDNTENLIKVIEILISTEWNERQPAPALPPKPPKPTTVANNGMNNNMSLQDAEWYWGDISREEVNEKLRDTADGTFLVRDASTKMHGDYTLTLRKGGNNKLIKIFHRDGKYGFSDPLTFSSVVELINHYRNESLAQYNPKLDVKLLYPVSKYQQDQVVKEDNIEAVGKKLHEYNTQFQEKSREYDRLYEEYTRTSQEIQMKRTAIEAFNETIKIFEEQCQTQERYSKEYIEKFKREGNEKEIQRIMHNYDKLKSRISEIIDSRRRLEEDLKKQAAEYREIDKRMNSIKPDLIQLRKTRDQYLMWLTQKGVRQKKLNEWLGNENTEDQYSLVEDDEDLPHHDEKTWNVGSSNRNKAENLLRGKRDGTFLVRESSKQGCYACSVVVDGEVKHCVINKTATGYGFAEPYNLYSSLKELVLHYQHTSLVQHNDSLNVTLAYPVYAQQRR
Sequence of PI3-kinase p110-alpha/p85-alpha (P42336 whole entry): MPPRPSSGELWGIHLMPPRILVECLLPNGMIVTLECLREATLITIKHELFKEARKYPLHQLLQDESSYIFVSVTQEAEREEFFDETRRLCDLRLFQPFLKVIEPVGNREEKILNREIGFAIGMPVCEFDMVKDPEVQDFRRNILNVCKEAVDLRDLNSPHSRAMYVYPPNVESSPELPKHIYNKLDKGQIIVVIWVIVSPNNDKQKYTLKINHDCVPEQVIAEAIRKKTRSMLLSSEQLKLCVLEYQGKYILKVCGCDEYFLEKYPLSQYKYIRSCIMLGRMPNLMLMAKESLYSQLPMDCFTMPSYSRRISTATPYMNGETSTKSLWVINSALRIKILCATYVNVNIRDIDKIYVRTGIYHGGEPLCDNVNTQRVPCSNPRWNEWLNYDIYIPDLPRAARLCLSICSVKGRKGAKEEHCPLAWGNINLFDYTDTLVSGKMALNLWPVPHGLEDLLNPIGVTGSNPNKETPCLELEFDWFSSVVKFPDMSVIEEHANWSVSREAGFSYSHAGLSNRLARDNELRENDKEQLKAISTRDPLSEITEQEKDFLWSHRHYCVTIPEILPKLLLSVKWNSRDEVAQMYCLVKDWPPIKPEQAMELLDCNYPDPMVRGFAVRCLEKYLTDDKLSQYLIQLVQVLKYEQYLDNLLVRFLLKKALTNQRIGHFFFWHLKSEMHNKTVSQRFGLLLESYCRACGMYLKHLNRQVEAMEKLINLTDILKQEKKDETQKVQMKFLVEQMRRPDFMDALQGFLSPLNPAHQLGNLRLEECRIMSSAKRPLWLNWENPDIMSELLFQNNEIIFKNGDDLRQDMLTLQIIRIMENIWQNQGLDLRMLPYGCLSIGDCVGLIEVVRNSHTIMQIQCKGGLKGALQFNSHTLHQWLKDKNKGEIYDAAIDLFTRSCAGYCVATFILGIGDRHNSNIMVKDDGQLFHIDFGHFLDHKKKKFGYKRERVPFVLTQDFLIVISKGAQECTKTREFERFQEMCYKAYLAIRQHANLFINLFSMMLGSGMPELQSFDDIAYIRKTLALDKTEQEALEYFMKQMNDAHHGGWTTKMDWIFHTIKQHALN

PI3K p110 beta/p85 alpha = PI3K p110 beta/p85 alpha (Homo sapiens, UniProt P42338); experiment: Inhibition of recombinant human N-terminal His6-tagged full length P110beta/full length untagged human p85alpha expressed in baculovirus infected Sf21 insect cells using PIP2 as substrate preincubated for 15 mins followed by substrate addition and measured after 60 mins by HTRF assay
Sequence of PI3K p110 beta/p85 alpha (P27986 whole entry, canonical isoform): as the sequence (P27986 whole entry) above
Sequence of PI3K p110 beta/p85 alpha (P42338 whole entry, canonical isoform): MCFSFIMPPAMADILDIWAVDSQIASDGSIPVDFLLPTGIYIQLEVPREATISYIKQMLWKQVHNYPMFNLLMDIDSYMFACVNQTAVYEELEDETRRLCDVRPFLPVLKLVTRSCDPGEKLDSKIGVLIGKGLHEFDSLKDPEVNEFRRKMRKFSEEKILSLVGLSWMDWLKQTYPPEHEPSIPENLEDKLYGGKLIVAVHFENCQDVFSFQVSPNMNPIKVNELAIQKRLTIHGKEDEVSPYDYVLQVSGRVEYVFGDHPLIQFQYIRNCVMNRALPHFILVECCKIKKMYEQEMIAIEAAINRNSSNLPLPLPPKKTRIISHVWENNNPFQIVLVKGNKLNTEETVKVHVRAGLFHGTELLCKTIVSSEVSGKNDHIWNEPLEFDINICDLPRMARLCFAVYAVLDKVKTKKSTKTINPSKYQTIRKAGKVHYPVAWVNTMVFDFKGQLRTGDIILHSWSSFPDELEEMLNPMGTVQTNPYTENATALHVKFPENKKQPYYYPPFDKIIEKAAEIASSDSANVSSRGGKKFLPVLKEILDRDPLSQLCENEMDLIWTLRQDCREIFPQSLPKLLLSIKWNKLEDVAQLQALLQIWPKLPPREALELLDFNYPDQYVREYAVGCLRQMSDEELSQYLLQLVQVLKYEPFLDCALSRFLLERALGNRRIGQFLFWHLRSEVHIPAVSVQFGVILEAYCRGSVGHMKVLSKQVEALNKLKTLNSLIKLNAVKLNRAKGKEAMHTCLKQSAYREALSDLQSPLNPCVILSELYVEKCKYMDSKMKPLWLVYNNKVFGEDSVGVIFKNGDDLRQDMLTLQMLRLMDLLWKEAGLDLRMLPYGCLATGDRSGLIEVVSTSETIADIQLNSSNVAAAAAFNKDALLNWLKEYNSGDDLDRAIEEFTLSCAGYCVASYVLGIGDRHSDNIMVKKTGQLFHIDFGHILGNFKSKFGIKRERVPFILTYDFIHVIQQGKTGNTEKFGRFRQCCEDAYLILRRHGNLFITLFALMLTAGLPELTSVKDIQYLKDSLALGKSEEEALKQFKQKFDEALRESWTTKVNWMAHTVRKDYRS

[3] = target: Phosphatidylinositol 4,5-bisphosphate 3-kinase catalytic subunit gamma isoform (Homo sapiens, UniProt P48736); experiment: Inhibition of recombinant human N-terminal His6-tagged full length P120gamma expressed in baculovirus infected Sf21 insect cells using PIP2 as substrate preincubated for 15 mins followed by substrate addition and measured after 60 mins by HTRF assay
Sequence of Phosphatidylinositol 4,5-bisphosphate 3-kinase catalytic subunit gamma isoform (P48736 whole entry, canonical isoform): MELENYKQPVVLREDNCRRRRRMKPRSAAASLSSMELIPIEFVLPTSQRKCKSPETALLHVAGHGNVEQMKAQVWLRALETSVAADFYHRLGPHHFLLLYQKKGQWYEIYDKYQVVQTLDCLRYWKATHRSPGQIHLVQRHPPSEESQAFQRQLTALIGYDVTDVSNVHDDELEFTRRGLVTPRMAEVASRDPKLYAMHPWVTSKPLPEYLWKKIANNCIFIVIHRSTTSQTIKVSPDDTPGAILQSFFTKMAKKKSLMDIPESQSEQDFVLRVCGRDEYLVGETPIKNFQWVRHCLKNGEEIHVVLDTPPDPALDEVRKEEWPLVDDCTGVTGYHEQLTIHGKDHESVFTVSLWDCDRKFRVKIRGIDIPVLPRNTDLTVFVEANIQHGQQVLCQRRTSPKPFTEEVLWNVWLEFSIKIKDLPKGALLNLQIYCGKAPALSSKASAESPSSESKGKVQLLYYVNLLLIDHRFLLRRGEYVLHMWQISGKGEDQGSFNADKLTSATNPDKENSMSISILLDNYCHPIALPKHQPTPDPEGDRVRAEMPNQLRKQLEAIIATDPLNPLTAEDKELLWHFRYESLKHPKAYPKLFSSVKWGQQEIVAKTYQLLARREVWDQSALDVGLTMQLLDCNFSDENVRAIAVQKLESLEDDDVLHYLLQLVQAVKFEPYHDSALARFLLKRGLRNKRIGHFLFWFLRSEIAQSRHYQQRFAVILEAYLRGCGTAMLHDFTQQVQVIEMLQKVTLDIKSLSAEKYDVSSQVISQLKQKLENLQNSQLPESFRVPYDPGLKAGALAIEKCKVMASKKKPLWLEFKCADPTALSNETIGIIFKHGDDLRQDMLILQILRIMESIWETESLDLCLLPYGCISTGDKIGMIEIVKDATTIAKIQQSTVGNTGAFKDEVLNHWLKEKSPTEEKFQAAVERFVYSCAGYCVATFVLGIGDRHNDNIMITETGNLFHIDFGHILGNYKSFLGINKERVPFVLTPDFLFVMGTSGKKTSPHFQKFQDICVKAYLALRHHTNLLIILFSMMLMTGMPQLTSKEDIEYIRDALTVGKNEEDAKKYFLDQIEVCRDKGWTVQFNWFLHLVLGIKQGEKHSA

[4] = target: T1, Phosphatidylinositol 4,5-bisphosphate 3-kinase catalytic subunit delta isoform (Homo sapiens, UniProt O00329); experiment: Inhibition of PI3Kdelta in human whole blood assessed as reduction in cytostim-stimulated IFNgamma production preincubated for 1 hr followed by cytostim stimulation and measured after 20 hrs by electrochemiluminescence assay
T1 sequence (O00329 whole entry): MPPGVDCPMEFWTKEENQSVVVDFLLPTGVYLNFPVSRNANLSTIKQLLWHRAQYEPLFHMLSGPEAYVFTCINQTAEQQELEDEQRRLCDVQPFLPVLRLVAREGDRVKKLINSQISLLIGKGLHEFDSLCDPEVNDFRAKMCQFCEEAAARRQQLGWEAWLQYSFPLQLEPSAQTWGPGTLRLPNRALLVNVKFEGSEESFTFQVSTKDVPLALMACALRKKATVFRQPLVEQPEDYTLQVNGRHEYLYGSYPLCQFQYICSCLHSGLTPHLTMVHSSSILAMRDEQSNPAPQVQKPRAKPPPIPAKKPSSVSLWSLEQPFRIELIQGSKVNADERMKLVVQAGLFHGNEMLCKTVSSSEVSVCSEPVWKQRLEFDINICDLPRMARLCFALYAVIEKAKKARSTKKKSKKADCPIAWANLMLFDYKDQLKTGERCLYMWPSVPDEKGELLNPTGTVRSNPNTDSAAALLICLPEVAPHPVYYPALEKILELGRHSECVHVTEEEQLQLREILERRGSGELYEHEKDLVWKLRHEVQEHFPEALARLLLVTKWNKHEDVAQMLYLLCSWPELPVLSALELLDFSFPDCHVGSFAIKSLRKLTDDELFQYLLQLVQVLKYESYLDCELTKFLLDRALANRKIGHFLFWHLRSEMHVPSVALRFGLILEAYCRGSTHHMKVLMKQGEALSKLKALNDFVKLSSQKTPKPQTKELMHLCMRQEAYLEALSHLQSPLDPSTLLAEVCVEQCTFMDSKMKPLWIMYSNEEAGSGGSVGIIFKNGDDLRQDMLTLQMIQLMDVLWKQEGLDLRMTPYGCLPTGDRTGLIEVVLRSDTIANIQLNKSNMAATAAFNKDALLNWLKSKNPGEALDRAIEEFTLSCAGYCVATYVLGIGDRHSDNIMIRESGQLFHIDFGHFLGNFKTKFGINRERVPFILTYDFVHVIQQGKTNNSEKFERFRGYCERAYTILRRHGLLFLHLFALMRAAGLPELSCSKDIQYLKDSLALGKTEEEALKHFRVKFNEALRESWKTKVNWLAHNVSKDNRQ

serum albumin = serum albumin (Homo sapiens, UniProt P02768); experiment: Binding affinity to human serum albumin by HPLC analysis; format: ADME, cell-free; settings: read-out: PB (converted)
Sequence of serum albumin (P02768 whole entry): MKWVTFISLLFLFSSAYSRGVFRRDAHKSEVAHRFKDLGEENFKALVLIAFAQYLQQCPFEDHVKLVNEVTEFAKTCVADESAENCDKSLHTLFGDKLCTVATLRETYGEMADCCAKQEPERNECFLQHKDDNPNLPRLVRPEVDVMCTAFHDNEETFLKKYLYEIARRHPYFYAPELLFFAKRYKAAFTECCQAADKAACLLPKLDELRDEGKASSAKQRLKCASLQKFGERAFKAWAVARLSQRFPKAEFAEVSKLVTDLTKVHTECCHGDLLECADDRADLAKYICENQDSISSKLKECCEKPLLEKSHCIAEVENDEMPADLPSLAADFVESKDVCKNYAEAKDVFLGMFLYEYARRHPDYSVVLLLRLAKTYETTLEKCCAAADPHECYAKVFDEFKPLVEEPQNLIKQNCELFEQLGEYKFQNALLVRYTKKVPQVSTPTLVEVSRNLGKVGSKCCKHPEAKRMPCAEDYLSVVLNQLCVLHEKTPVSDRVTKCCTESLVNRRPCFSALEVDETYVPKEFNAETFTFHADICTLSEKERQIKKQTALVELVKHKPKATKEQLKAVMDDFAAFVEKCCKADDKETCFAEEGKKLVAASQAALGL

Homo sapiens = species on record: Homo sapiens; experiment: Selectivity ratio of IC50 for inhibition of recombinant human N-terminal His6-tagged full length P110delta/full length untagged human p85alpha expressed in baculovirus infected Sf21 insect cells to IC50 for inhibition of PI3Kdelta in human whole blood
[5] = Lipophilicity, log D of compound by chromatographic method; format: physicochemical
[6] = Intrinsic clearance in Wistar Han rat liver microsomes at 0.5 uM measured up to 45 mins in presence of NADPH by LC-MS/MS analysis; format: ADME, Microsome; settings: read-out: CLH
[7] = Clearance in Wistar Han rat at 1 mg/kg, iv administered as infusion for 1 hr by RP LC-MS/MS analysis; format: ADME, organism-based; settings: in vivo
[8] = Volume of distribution at steady state in Wistar Han rat at 1 mg/kg, iv administered as infusion for 1 hr by RP LC-MS/MS analysis; format: ADME, organism-based; settings: in vivo, read-out: Vdss
[9] = Half life in Wistar Han rat at 1 mg/kg, iv administered as infusion for 1 hr by RP LC-MS/MS analysis; format: ADME, organism-based; settings: in vivo
in vitro = settings: human, pooled liver microsomes
Description: Intrinsic clearance in pooled human liver microsomes at 0.5 uM measured up to 45 mins in presence of NADPH by LC-MS/MS analysis

Sequence of PI3-kinase p110-delta/p85-alpha (P27986 whole entry, one chain of several): as the sequence (P27986 whole entry) above

SMILES	IC50 [1] [nM]	IC50 [2] [nM]	IC50 (PI3K p110 beta/p85 alpha) [nM]	IC50 [3] [nM]	IC50 [4] [nM]	fraction unbound (serum albumin)	Ratio IC50 (Homo sapiens)	chromatographic logD [5]	CLint scaled at 0.5 µM [6] [mL/min/kg]	clearance [7] [mL/min/kg]	Vd [8] [L/kg]	half-life [9] [min]	CLint scaled at 0.75 h, 0.5 µM (in vitro) [mL/min/kg]	Ki [1] [nM]	pIC50 ([3]; sf21)
COc1ncc(C2=CCOCC2)cc1S(=O)(=O)Nc1ccnc(C)c1	31.6	3980	316	3980	316	0.21	10	–	–	–	–	–	–	–	–
COc1ncc(N2CCOCC2)cc1S(=O)(=O)Nc1cncc(-c2ccc(CN3CCCC3)cc2F)c1	3.16	1000	1580	2510	20	–	–	2.4	< 0.46	8.8	0.6	31.8	< 0.4	–	–
COc1ncc(C2=CCOCC2)cc1S(=O)(=O)Nc1cncc(-c2cccc(CN3CCCCC3)c2)c1	5.01	5010	1260	6310	79.4	–	–	3.5	3.98	–	–	–	1.88	–	–
COc1ncc(C2=CCOCC2)cc1S(=O)(=O)Nc1cncc(-c2ccc(CN(C)C)cc2)c1	7.94	5010	1000	10000	79.4	–	–	2	0.66	–	–	–	< 0.4	–	–
COc1ncc(N2CCOCC2)cc1S(=O)(=O)Nc1cncc(-c2ccc(CN3CCCC3)c(F)c2)c1	12.6	3980	2510	10000	63.1	–	–	2.2	< 0.46	–	–	–	< 0.4	–	–
COc1ncc(C2=CCOCC2)cc1S(=O)(=O)Nc1cncc(-c2ccc(CN3CCCC3)cc2)c1	5.01	5010	631	10000	31.6	–	–	2.2	0.88	–	–	–	0.72	–	–
COc1ncc(N2CCOCC2)cc1S(=O)(=O)Nc1ccnc(-c2ccc(CN3CCN(C(C)C)CC3)c(F)c2)c1	1.58	1580	7940	3980	3.16	–	–	1.8	< 0.46	–	–	–	< 0.4	0.0501	–
COc1ncc(C2=CCOCC2)cc1S(=O)(=O)Nc1cncc(C)c1	20	3160	398	5010	3980	0.09	100	–	–	–	–	–	–	–	–
COc1ncc(C2=CCOCC2)cc1S(=O)(=O)Nc1cncc(-c2ccc(CN3CCN(C(C)C)CC3)cc2)c1	0.316	398	794	2510	12.6	–	–	2.9	0.61	–	–	–	2.28	0.01	–
COc1ncc(N2CCOCC2)cc1S(=O)(=O)Nc1cncc(C#CCN2CCN(C(C)C)CC2)c1	31.6	20000	15800	–	158	–	–	1.6	< 0.46	–	–	–	< 0.4	–	> 4.5
COc1ncc(C2=CCOCC2)cc1S(=O)(=O)Nc1cncc(-c2ccc(CN3C[C@@H](C)N(C)[C@@H](C)C3)cc2)c1	0.501	316	2510	5010	1.26	–	–	3.1	0.87	–	–	–	3.04	0.0158	–
COc1ncc(N2CCOCC2)cc1S(=O)(=O)Nc1ccnc(-c2ccc(CN3CCC(C(C)(C)O)CC3)cc2F)c1	1.58	2510	2510	3160	10	–	–	2.1	< 0.46	–	–	–	< 0.4	0.0501	–
COc1ncc(C2=CCOCC2)cc1S(=O)(=O)Nc1cncc(-c2ccc(CN3C[C@@H](C)O[C@@H](C)C3)cc2)c1	0.398	1000	631	794	25.1	–	–	5.3	18.9	–	–	–	12.9	0.01	–
COc1ncc(C2=CCOCC2)cc1S(=O)(=O)Nc1cncc(-c2ccc(CN3CCN(C(C)C)CC3)nc2)c1	1.26	1260	3980	5010	31.6	–	–	1.8	< 0.46	–	–	–	0.43	0.0251	–
